Assay results from ChEMBL document CHEMBL1134700, “Design, synthesis and characterisation of a peptide with oxaloacetate decarboxylase activity” (Bioorg Med Chem Lett, 2001).
Where “and” joins values, the source holds several entries; their conditions need not be identical. Equal entries are not always repeated.

Columns and labels:
[1] = Decarboxylation of oxaloacetate to produce pyruvate was measured bythe conversion of NADH to NAD+ in the lactate dehydrogenase mediated transformation of pyruvate to lactate; expressed as Catalytic efficiency as the ratio of (kcat/KM)
[2] = Catalytic efficiency is the ratio of (kcat/KM)
[3] = biological target: L-lactate dehydrogenase B chain (Sus scrofa) (UniProt P00336); assay: (§1) Decarboxylation of oxaloacetate to produce pyruvate was measured bythe conversion of NADH to NAD+ in the lactate dehydrogenase mediated transformation of pyruvate to lactate at a uM
[4] = biological target: L-lactate dehydrogenase B chain (Sus scrofa) (UniProt P00336); assay: Decarboxylation of oxaloacetate to produce pyruvate was measured by the conversion of NADH to NAD+ in the lactate dehydrogenase mediated transformation of pyruvate to lactate at a uM
[5] = tested on: CC(C)C[C@H](NC(=O)[C@H](C)NC(=O)[C@H](CCCCN)NC(=O)[C@H](CC(C)C)NC(=O)[C@H](CC(C)C)NC(=O)[C@@H](CCCCN)NC(=O)[C@H](C)NC(=O)[C@@H](N)CC(C)C)C(=O)N[C@@H](C)C(=O)N[C@@H](CCCCN)C(=O)N[C@@H](CC(C)C)C(=O)N[C@@H](CC(C)C)C(=O)N[C@@H](CCCCN)C(=O)N[C@@H](CCCCN)C(N)=O; assay: as §1
[6] = tested on: CC(=O)NCC(=O)N1CCC[C@H]1C(=O)N[C@@H](CO)C(=O)N[C@@H](CCC(N)=O)C(=O)N1CCC[C@H]1C(=O)N[C@H](C(=O)N[C@@H](Cc1ccc(O)cc1)C(=O)N1CCC[C@H]1C(=O)NCC(=O)N[C@@H](CC(=O)O)C(=O)N[C@@H](CC(=O)O)C(=O)N[C@@H](C)C(=O)N1CCC[C@H]1C(=O)N[C@H](C(=O)N[C@@H](CCC(=O)O)C(=O)N[C@@H](CC(=O)O)C(=O)N[C@@H](CC(C)C)C(=O)N[C@@H](CCCCN)C(=O)N[C@@H](CCCN=C(N)N)C(=O)N[C@@H](Cc1ccccc1)C(=O)N[C@@H](Cc1ccc(O)cc1)C(=O)N[C@@H](CCCCN)C(=O)N[C@@H](CC(N)=O)C(=O)N[C@@H](CC(C)C)C(=O)N[C@@H](CCCCN)C(=O)N[C@@H](CCC(N)=O)C(=O)N[C@@H](Cc1ccc(O)cc1)C(=O)N[C@@H](CC(C)C)C(=O)N[C@@H](CCCCN)C(=O)N[C@H](C(=O)N[C@H](C(N)=O)C(C)C)C(C)C)C(C)C)[C@@H](C)O; assay: as §1

Chain of L-lactate dehydrogenase B chain (Sus scrofa) (P00336 whole entry): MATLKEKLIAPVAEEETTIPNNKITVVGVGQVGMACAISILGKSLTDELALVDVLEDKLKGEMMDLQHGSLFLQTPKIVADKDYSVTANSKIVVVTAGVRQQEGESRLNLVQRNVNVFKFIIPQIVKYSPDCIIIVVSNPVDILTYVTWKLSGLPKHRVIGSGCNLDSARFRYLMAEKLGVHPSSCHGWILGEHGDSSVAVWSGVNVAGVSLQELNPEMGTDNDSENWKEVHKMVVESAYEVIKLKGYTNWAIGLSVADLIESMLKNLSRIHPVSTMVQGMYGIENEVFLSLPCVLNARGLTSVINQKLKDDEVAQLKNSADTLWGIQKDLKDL
Chain of L-lactate dehydrogenase B chain (Sus scrofa), P00336 (P00336 whole entry): as above

Compound	k cat/Km [1] [M⁻¹ s⁻¹]	k cat/Km [2]	k cat [3] [s⁻¹]	further results
CC(C)C[C@H](NC(=O)[C@H](C)NC(=O)[C@H](CCCCN)NC(=O)[C@H](CC(C)C)NC(=O)[C@H](CC(C)C)NC(=O)[C@@H](CCCCN)NC(=O)[C@H](C)NC(=O)[C@@H](N)CC(C)C)C(=O)N[C@@H](C)C(=O)N[C@@H](CCCCN)C(=O)N[C@@H](CC(C)C)C(=O)N[C@@H](CC(C)C)C(=O)N[C@@H](CCCCN)C(=O)N[C@@H](CCCCN)C(N)=O	–	0.153 M⁻¹ s⁻¹ and 0.071 M⁻¹ s⁻¹	0.0075	k cat [4]: 0.015 s⁻¹
L-lactate dehydrogenase B chain (Sus scrofa), P00336	–	–	–	Km [5]: 48 mM; Km [6]: 49.4 mM
NCC(N)=O	0.011	–	–	–

Continued, in another order:

k cat/Km [1] [M⁻¹ s⁻¹]	k cat/Km [2]	k cat [3] [s⁻¹]	Compound	further results
0.0005	–	–	CCCCN	–
–	1.74 M⁻¹ s⁻¹	0.086	Ac-GPSQPTYPGDDAPVEDLKRFYKNLKQYLKVV-NH2	–
